One assay relates to A498 ccRCC cell line. As to conditions: read-out: IC50, decrease in proliferation; A498, day 5. On the procedure:
(§1) ccRCC cell lines: RWV366T and KIJ265T (16) (both stage IV ccRCC patient tissue derived), A498, Caki1, Caki2, and ACHN (ATCC) and K347N, K355N, K359N, K360N, K365N, and K366N normal renal tissue derived mortal cells (NRE) were cultured in DMEM medium (Cellgro) containing 5% FBS (Hyclone) and 1× penicillin-streptomycin (Invitrogen) at 37° C. in humidified conditions with 5% CO2.
(§2) Cells were plated (0.5 or 1×10^5/well) in 24-well plates for proliferation or treatment assays, in triplicate. Cells were trypsinized (0.25%) and counted using a Coulter Particle Counter at specified time intervals. For SCD1 rescue assays, oleic acid-albumin was added to media at 5 μM. Drug stocks were prepared in DMSO. […] Temsirolimus dosing was performed as described in the text. Soft agar cultures were prepared by diluting 2× growth medium 1:1 in 1.5% Seaplaque®GTG® agarose, with 500 cells/plate in 60 mm culture dishes. Colonies were stained with Giemsa (LabChem Inc.) and counted after 3 wks. Cell images were obtained with an OlympusIX71 microscope at 20× magnification.

The test system of a further assay is ACHN ccRCC cell line. The following applies: read-out: IC50, decrease in proliferation, day 5. Here is the method: as §1, §2
The next assay deals with Caki1 ccRCC cell line. As to conditions: read-out: IC50, decrease in proliferation; Caki1, day 5. On the procedure: as §1, §2
The test system of a further assay is Caki2 ccRCC cell line. The following applies: read-out: IC50, decrease in proliferation; Caki2, day 5. On the procedure:
as §1, §2

Assay [1] deals with Caki1, A498, Caki2, and ACHN ccRCC cell lines. The assay can be described thus: OA-BSA rescue of growth inhibition. It is filed as cell-based, human. As to conditions: IC50 doses of A939572 + OA-BSA vs DMSO+BSA control, all four cell lines. Here is the method: Drug stocks were prepared in DMSO. Monotherapeutic treatment identified drug dose-response. […] Temsirolimus dosing was performed as described in the text.

Assay [2] has the same test system. The assay can be described thus: PARP cleavage western blot (apoptosis). It is filed as cell-based, human. On the procedure: (§3) Protein extracts, electrophoresis, and membrane transfers were prepared as previously described (Copland J A, Marlow L A, Kurakata S, Fujiwara K, Wong A K, Kreinest P A, et al. Novel highaffinity PPARgamma agonist alone and in combination with paclitaxel inhibits human anaplastic thyroid carcinoma tumor growth via p21WAF1/CIP1. Oncogene. 2006; 25:2304-17). Primary antibodies included SCD1, PARP, DDIT3, BiP, sXBP1, and β-actin. A Supersignal chemiluminescent kit was used to perform detection.
A general note: A western blot detects proteins with antibodies after separation by electrophoresis.

Another assay deals with Caki1 and A498 cells. The experiment in a line: Western blot of ER stress markers. It is filed as cell-based, human. As to conditions: 75 nM drug or shSCD780 knockdown, 48 hours. On the procedure:
as §3

In a further assay the test system is A498 cells. The assay can be described thus: qPCR of five ER stress genes. It is filed as cell-based, human. Here is the method: (§4) An RNAqueous Midi Kit was utilized to extract and purify RNA from cell lines. Human tissue RNA was prepared using TRIzol® per manufacturer's protocol followed by purification using the RNAqueous Midi Kit. The O.D. 260/280 ratio of the mRNA was at least 1.8 and the 18s/28s bands were verified on a 1% agarose gel. cDNA was prepared from purified RNA samples using High Capacity cDNA Reverse Transcriptase Kit per manufacturer's instruction. TaqMan®Fast Universal PCR Master Mix and TaqMan®FAMTM dye-labeled probes including POLR2A (Hs00172187_m1) (normalization control), SCD1 (Hs01682761_m1), HSPA5 (Hs99999174_m1), CEBPβ (CEBPB Hs00270923_s1), GADD45A (Hs00169255_m1), DDIT3 (Hs01090850_m1), and HERPUD1 (Hs01124269_m1) were combined with prepared cDNA samples to analyze relative mRNA expression via qPCR. Fold change values were compared between normal and tumor, non-target scrambled lentiviral and target lentiviral infected, and DMSO vs. A939572 treated samples using the ΔΔCt method (Schmittgen T D, Livak K J. Analyzing real-time PCR data by the comparative C(T) method. Nat Protoc. 2008; 3:1101-8).
(§5) In order to validate the specificity of ER stress induction mediated by both A939572 and shSCD780, rescue assays were performed using OA-BSA in Caki1 and A498 cells qPCR analysis of five ER stress genes identified in the gene array including BiP, CHOP, HERPUD1 (homocysteine-inducible, ER-stress inducible, ubiquitin-like-1), GADD45a (DNA damage inducible transcript 1, DDIT1), and CEBPβ (CCAAT/enhancer binding protein beta) were examined.

A further assay concerns Caki1 cells. The assay can be described thus: qPCR of five ER stress genes. It is filed as cell-based, human. On the procedure: as §4, §5
(In qPCR the cycle at which signal appears reflects the starting amount.)

Another assay relates to MiaPaca cells. The assay can be described thus: Cell number growth inhibition assay. It is filed as cell-based, human. As to conditions: cell number as percent of DMSO control. Here is the method:
(§6) A number of cancer cell lines were tested to determine whether SCD1 protein expression correlates with growth inhibition of an SCD1 inhibitor in human cancer cell lines.
(§7) Cells (20,000/ml) were plated in 12 well cell culture plates, allowed to attach and treated with the indicated dose of SCD1 inhibitor ([…]) or standard of care (gemcitabine). Cell number was counted using a Coulter Counter. As show in FIG. 7, the data are expressed as percent of DMSO control. Each value represents triplicates. Western analysis for SCD1 protein expression was performed on each cell line with beta-actin as the loading control.

A further assay relates to Panc cells. The experiment in a line: Cell number growth inhibition assay. It is filed as cell-based, human. Here is the method:
as §6, §7

The test system of assay [3] is BCJ4T bladder cancer cells. The experiment in a line: Cell number growth inhibition assay. It is filed as cell-based, human. On the procedure:
as §6, §7
(§8) The following cell lines were studied using a similar method as that described above.

The test system of assay [4] is MCF-7 (ER+/PR+) breast cancer cells. The experiment in a line: Cell number growth inhibition assay. It is filed as cell-based, human. Here is the method:
as §6, §7, §8

The next assay concerns A498 ccRCC xenografts. The assay can be described thus: IHC analysis of resected xenograft tumors.
Assay [5] has as its system ATF6 luciferase reporter in Caki1 cells.
Protocol: (§9) For transient transfection, Caki1 and A498 cells were transfected using Lipofectamine 2000. Cells treated with DMSO vs. A939572 or infected using shSCD780 lentiviral constructs vs. NT control were harvested after 48 hrs using Promega's Dual Luciferase assay kit per the manufacturer's protocol and luciferase activity was measured using a Veritas Luminometer; reported as relative luminescence.
(§10) Caki1 and A498 cells transfected with an ATF6 luciferase reporter (p5xATF6-GL3) were treated with a 75 nM dose of A939572 or were infected with shSCD780. Resulting luminescence was measured after 48 hours.
Assay [6] has as its system ATF6 luciferase reporter in A498 cells.
Protocol: as §9, §10

Protocol for A498 ccRCC xenografts: The TMAs were mounted on slides from paraffin-embedded blocks according to IHC procedure and samples were blocked with Diluent that contained Background Reducing Components (Dakocytomation) for 30 min and then probed for SCD1, Ki67, Caspase-3, CD31, phospho-mTOR, DDIT3, and XBP1. […] Stain scoring was done using algorithms generated with Imagescope software created by a histologist. H-scores were calculated based upon signal intensity (0-3+) using the formula: [(1+%×1)+(2+%×2)+(3+%×3)], intensity (I)-scores were calculated by dividing signal intensity by area, and nuclear (N)-scores were calculated by dividing % positive nuclei by total nuclei examined per area. Cases where insufficient tumor tissue presented were excluded from the study. 20× images were obtained using Scanscope XT and Imagescope software.
IHC analysis of tumors resected from each treatment group was analyzed for proliferation, angiogenesis, and cell death (FIG. 6B).

Regarding `CNC(=O)c1cccc(NC(=O)N2CCC(Oc3ccccc3Cl)CC2)c1` [A939572], the IC50 in the assay with A498 ccRCC cell line was found to be 50 nM; with ACHN ccRCC cell line, 6 nM; with Caki1 ccRCC cell line, 65 nM; in the assay on Caki2 ccRCC cell line it was 65 nM. The “growth inhibition with addition of OA-BSA” value in [1] is “prevented A939572 mediated growth inhibition”. The “apoptosis by PARP cleavage with addition of OA-BSA” value in assay [2] (A939572 + OA-BSA) is given as “blocked apoptosis”. The “apoptosis by PARP cleavage” value in [2] (western blot, all four cell lines) is on record as “induced apoptosis”. In addition, the “protein expression of ER stress markers BiP, CHOP, spliced-XBP1” value in the assay on Caki1 and A498 cells is listed as “amplified expression”. For the same compound, the “ER stress gene expression with addition of OA-BSA” value was “blocked” in the assay on A498 cells (A498, + OA-BSA) and “blocked” with Caki1 cells (Caki1, + OA-BSA). The “mRNA expression of ER stress genes BiP, CHOP, HERPUD1, GADD45a, CEBPβ” value is on record as “significantly increased levels” with A498 cells (A498, vs DMSO+BSA or NT control) and “significantly increased levels” in the assay on Caki1 cells (Caki1, vs DMSO+BSA or NT control). Moreover, the growth inhibition entry in the assay with MiaPaca cells is recorded as “growth inhibited in a dose dependent fashion”; in the assay on Panc cells it was “growth inhibited at only high levels”; in assay [3], “not growth inhibited”; in [4], “growth inhibited in a dose dependent fashion”. Moreover, in the assay on A498 ccRCC xenografts (vs placebo / other groups), the “cell death, cleaved caspase-3 (CC3)” value is given as “moderate increase”. Besides, the “proliferation, percent positivity of nuclear Ki67 staining” value with A498 ccRCC xenografts (vs placebo control) is on record as “decreased proliferation”. In addition, the “reporter activation with addition of OA-BSA” value in assay [5] (Caki1, + OA-BSA) is “significantly reduced reporter activation”; in assay [6] (A498, + OA-BSA), “significantly reduced reporter activation”. Besides, the “luciferase activity, fold change induction” value was determined as 1.6 fold change in assay [5] (Caki1, +BSA, 75 nM A939572 or shSCD780, 48 hours, vs DMSO and NT controls); 3.8 fold change in assay [6] (A498, +BSA, 75 nM A939572 or shSCD780, 48 hours, vs DMSO and NT controls).

For the origin of these results see US10160972B2, “Methods and materials for treating cancer” (Mayo Foundation for Medical Education and Research, priority 2012, dated 2018).
